Some test systems named below: SNB-19 CNS; A549 NSCLC; UO-31 renal; TK-10 renal; SF-295 CNS; A498 renal; OVCAR-4 ovarian; SNB-75 CNS; PC-3 prostate.
What all share (experiment): DTP human tumour cell line panel, 48 h

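Grown in 96-well plates, cells were treated for 48 hours with each compound at five concentrations. Insufficient inhibition: endpoint recorded as highest concentration tested. Abbreviation: GI50, concentration required for 50% inhibition of growth. At the TGI there is no net growth.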

Turning to `COC1(OC)C2(Cl)C(Cl)=C(Cl)C1(Cl)C1C2C2CC1(C(=O)O)c1ccccc12` (stereo unspecified), the TGI with SNB-19 CNS was above 100 µM; in the experiment on A549 NSCLC it was above 100 µM; with UO-31 renal it was 44.7 µM; with TK-10 renal, 70 µM; in the experiment with SF-295 CNS it was 56.8 µM; in the experiment with A498 renal it was above 100 µM. Also, the TGI with OVCAR-4 ovarian is 34.6 µM.
For the compound `COC(=O)C1=CC2C=CC(C1C(=O)OC)C1C(C(=O)OC)=C(C(=O)OC)C(C(=O)OC)=C(C(=O)OC)C21OC` (stereo unspecified), the TGI with SNB-75 CNS, with A549 NSCLC, in the experiment with UO-31 renal, in the experiment with TK-10 renal, in the experiment on SF-295 CNS and in the experiment with A498 renal was above 100 µM in each case. The same compound had a TGI in the experiment with OVCAR-4 ovarian above 100 µM.
As to `Nc1ccccc1C(=O)CCC1C(=O)NC(=S)NC1=O`, the TGI was above 100 µM with PC-3 prostate; above 89.6 µM with SNB-75 CNS; above 100 µM with SNB-19 CNS; above 100 µM in the experiment on A549 NSCLC; above 100 µM in the experiment with UO-31 renal; above 100 µM in the experiment on TK-10 renal. The TGI in the experiment on SF-295 CNS, with A498 renal and with OVCAR-4 ovarian was above 100 µM each time.
Regarding `N#CC(C(=O)/C(=N\NC(N)=O)C(C#N)c1ccccc1)c1ccccc1` (stereo unspecified), the TGI in the experiment with SNB-75 CNS, with SNB-19 CNS, with A549 NSCLC, in the experiment with UO-31 renal, in the experiment on TK-10 renal and in the experiment on SF-295 CNS was above 100 µM each time. Also, the TGI in the experiment with A498 renal and in the experiment with OVCAR-4 ovarian was above 100 µM each time.
As for `NC1=NN(c2ccccc2)C(=O)C1C(=O)C(=O)Nc1ccc(Cl)c(Cl)c1` (stereo unspecified), the TGI was 85 µM in the experiment on SNB-75 CNS; above 100 µM in the experiment with SNB-19 CNS; above 100 µM in the experiment with A549 NSCLC; above 100 µM with UO-31 renal; above 100 µM in the experiment with TK-10 renal; above 100 µM with SF-295 CNS. Also, the TGI in the experiment with A498 renal and in the experiment on OVCAR-4 ovarian was above 100 µM throughout.
As to `Cc1cc(=O)n(-c2cc3cccccc-3n2)[nH]1`, the TGI in the experiment with SNB-75 CNS is 31.7 µM; in the experiment on SNB-19 CNS, above 100 µM; in the experiment on A549 NSCLC it was above 100 µM; in the experiment with UO-31 renal, 48.3 µM; in the experiment with TK-10 renal, above 100 µM; with SF-295 CNS, above 100 µM. This compound also registered a TGI in the experiment with A498 renal of 46.9 µM.
Consider `COC(=O)[C@@H]1Cc2c([nH]c3ccccc23)[C@H](c2ccccc2)N1`, for which the TGI was 86.1 µM in the experiment on SNB-75 CNS; above 100 µM with SNB-19 CNS; above 100 µM in the experiment on A549 NSCLC; 73.9 µM in the experiment on UO-31 renal; above 100 µM in the experiment on TK-10 renal; 64.4 µM in the experiment with SF-295 CNS. Further, the TGI was 48.6 µM in the experiment with A498 renal and above 100 µM in the experiment on OVCAR-4 ovarian.
Take `CCOc1ccccc1N=Nc1c(-c2ccccc2)nn(C(=O)CC(=O)Nc2cccc(C)c2)c1-c1ccccc1`: the TGI with SNB-75 CNS, in the experiment on SNB-19 CNS, in the experiment on A549 NSCLC, in the experiment on UO-31 renal, in the experiment on TK-10 renal and with SF-295 CNS was above 100 µM each time. The compound also displayed a TGI in the experiment on OVCAR-4 ovarian above 100 µM.
For the compound `COC(=O)C1C(=O)O[C@@H](c2cc(OC)c(OC)cc2OC)C1C(=O)OC` (mixture of isomers), the TGI with SNB-75 CNS, in the experiment on SNB-19 CNS, in the experiment on A549 NSCLC, in the experiment on UO-31 renal, in the experiment on TK-10 renal and with SF-295 CNS was above 100 µM in each case. Further, the TGI in the experiment on A498 renal and in the experiment on OVCAR-4 ovarian was above 100 µM in each case.
In the case of `O=C(Nc1ccc(Cl)cc1Cl)OC(Cn1cncn1)c1ccc(Cl)cc1Cl` (stereo unspecified), the TGI in the experiment on SNB-75 CNS came to 30.1 µM; in the experiment on SNB-19 CNS, 30.8 µM; in the experiment on A549 NSCLC it was 33 µM; in the experiment with UO-31 renal, 26 µM; with SF-295 CNS it was 31.4 µM; with A498 renal it was 34.2 µM. The compound further registered a TGI in the experiment with OVCAR-4 ovarian of 28 µM.
`CNS(=O)(=O)NNS(=O)(=O)c1ccc(OC)cc1`: the TGI with SNB-75 CNS, in the experiment on SNB-19 CNS, in the experiment with A549 NSCLC, in the experiment on UO-31 renal, in the experiment with SF-295 CNS and in the experiment with A498 renal was above 100 µM each time. The same compound returned a TGI with OVCAR-4 ovarian above 100 µM.
In the case of `C/C=C1\CN2CCc3c([nH]c4ccccc34)C2CC1CCO` (stereo unspecified), the TGI in the experiment on SNB-75 CNS, with SNB-19 CNS, in the experiment on A549 NSCLC, in the experiment with UO-31 renal, in the experiment on TK-10 renal and with SF-295 CNS was above 100 µM each time. The TGI in the experiment on A498 renal and in the experiment with OVCAR-4 ovarian was above 100 µM throughout.
For `Clc1cccc(C2N3CCCCC3[C@@H]3c4[nH]c5ccccc5c4CCN23)c1` (stereo partly specified), the TGI was 85.4 µM with SNB-75 CNS; above 100 µM in the experiment on SNB-19 CNS; above 100 µM in the experiment on A549 NSCLC; 82 µM in the experiment on UO-31 renal; above 100 µM in the experiment on TK-10 renal; above 100 µM in the experiment with SF-295 CNS. For the same compound, the results for the TGI in the experiment with A498 renal and in the experiment with OVCAR-4 ovarian were 77.3 µM and above 100 µM, respectively.
Turning to `CC(=O)[C@H]1CCC2[C@@H]3CC=C4C[C@@H]([O-])CC[C@]4(C)C3CC[C@@]21C.CC(=O)[C@H]1CCC2[C@@H]3CC=C4C[C@@H]([O-])CC[C@]4(C)C3CC[C@@]21C.CC(=O)[CH-]C(=O)c1ccccc1.CC(=O)[CH-]C(=O)c1ccccc1.Cl.[Ti+4]` (stereo partly specified), the GI50 in the experiment with SNB-75 CNS was 24.4 µM; in the experiment with A549 NSCLC it was 23.6 µM; with UO-31 renal, 28.9 µM; in the experiment with TK-10 renal it was 40.7 µM; with SF-295 CNS it was 17.4 µM; in the experiment on A498 renal, 12.8 µM. In the experiment on OVCAR-4 ovarian, the GI50 was 62 µM. Moreover, the TGI in the experiment on SNB-75 CNS was 66.2 µM; in the experiment with A549 NSCLC, above 100 µM; with UO-31 renal, 79.3 µM; in the experiment with TK-10 renal, above 100 µM; with SF-295 CNS, 46.4 µM; in the experiment on A498 renal, 27 µM. In the experiment on OVCAR-4 ovarian, this compound returned a TGI above 100 µM.
`O=C1C2C3CC(C4C5C=CC(C5)C34)C2C2C3CC(C12)C1C2C=CC(C2)C31` (stereo unspecified): the TGI in the experiment with SNB-75 CNS, in the experiment with SNB-19 CNS, in the experiment on A549 NSCLC, with UO-31 renal, with TK-10 renal and in the experiment on SF-295 CNS was above 100 µM each time. The TGI in the experiment on A498 renal and with OVCAR-4 ovarian was above 100 µM throughout.

For orientation: TGI means the concentration giving total growth inhibition. Usually GI50 stands for the concentration at which growth is held to half of that of the control.

Values taken from PubChem BioAssay (NCI).
